In US20260355176A1 (NICOVENTURES TRADING LIMITED, priority 2019, published 2026):
Entries after “also recorded” stand apart in the source; their conditions may differ.

Experiments:
[1] = Nicotine octanol-water partitioning with various ion pairing agents and quantities (benzoate, octanoate, decanoate); type: physicochemical; conditions: pH 6.5, 1,000 ppm nicotine
Protocol: A pH probe was submerged in the resulting liquid and HCl (0.05 M) was added under stirring to bring the solution to pH 6.5. The flask weight was then brought up to 100 grams with RO water. […] Partitioning was performed by removing aliquots (10 mL) of each solution and placing into separate 20 ml scintillation vials. Octanol (10 ml) was added to each vial. The vials were then placed on a wrist action shaker for 20 minutes. Following agitation, the vials were allowed to separate for 30 min, and an aliquot (100 μl) of each octanol layer was removed and diluted with 900 μl octanol in 2 mL GC/MS vials.

[2] = Nicotine and benzoic acid octanol-water partitioning in unbuffered water; type: physicochemical
Protocol: The mobile phase was brought to pH 2.5 with H3PO4. The flow rate of the mobile phase was 1 mL/min, and the injection volume was 10 μL.

## CN1CCCC1c1cccnc1 (centres unmarked) [nicotine, reference compound]
[1]; 10 eq. octanoic acid
  % nicotine in octanol (FIG. 6): ~ 75%
[1]; benzoic acid at same concentration (10 eq.)
  % nicotine in octanol (FIG. 6): ~ 52%

## O=C(O)c1ccccc1 [benzoic acid]
[2]; 1000 ppm nicotine, 1 molar equivalent sodium benzoate, unbuffered water
  concentration in octanol: 19.2 ppm
[2]; calculated as ppm nicotine
  benzoic acid molarity in octanol in terms of nicotine mass: 25.5 ppm

## CCCCCCCCCC(=O)O [decanoic acid]
[1]
  octanol-water partitioning, in words: prone to becoming soapy during the vigorous mixing; also recorded: partition into octanol to an extent less than that expected by theory
